Measured values reported in PMC10033419, “Blocking NS3–NS4B interaction inhibits dengue virus in non-human primates” (Nature, 2023).
“And” between values parts separate entries of the source, which are not always exact repeats. Equal values may be shown once. Read-outs that look alike come from different tables or passages of the source.

Key:
[1] = tested on: DENV-2 RL strain; assay: Antiviral assay, viral RNA RT-qPCR, C6/36 cells; format: cell-based
[2] = tested on: unrelated DNA and RNA viruses; assay: Panel of unrelated DNA and RNA viruses; format: cell-based
[3] = Plasma protein binding; format: in vitro ADME; settings: mouse, mice
[4] = tested on: VACV Western reserve 56; assay: microbe, parasite or virus in culture; format: cell-based; settings: Orthopoxvirus vaccinia, Vero C1008; VeroE6
[5] = tested on: DENV-4 G1 India; assay: microbe, parasite or virus in culture; format: cell-based; settings: Dengue virus, DENV4, Vero C1008
Method: (§1) A total of 20 DENV strains, representing the available genotypes within the four DENV serotypes, were used in the in vitro genotype panel, from which 19 viruses were described previously in ref. [3] and one additional virus, DENV-1/45AZ5 (ref. [54]), was added.
(§2) A potential toxic effect on host cells was tested in parallel, while omitting virus infection, using the MTS/PMS method (Promega) for Vero cells, or by high-content imaging for C6/36 cells, as described previously. […] RT–qPCR data were analysed using the QuantStudio 12K Flex software (v.1.2.3) or SDS v.1.2 Applied Biosystems software. Inhibition values for antiviral molecules were plotted using KaleidaGraph plotting software (v.4.03, Synergy Software).

[6] = tested on: DENV-2 Asian II Papua New Guinea; assay: microbe, parasite or virus in culture; format: cell-based; settings: Dengue virus, DENV2, Vero C1008
Method: as §1, §2

[7] = tested on: DENV-2 Cosmopolitan France - Toulon; assay: microbe, parasite or virus in culture; format: cell-based; settings: Dengue virus, DENV2, Vero C1008
Method: as §1, §2

[8] = tested on: hCMV AD169; assay: microbe, parasite or virus in culture; format: cell-based; settings: Human betaherpesvirus 5, AD169, MRC5; MRC-5
[9] = tested on: subgenomic DENV-2/16681 reporter replicon (WT or NS4B mutants); assay: microbe, parasite or virus in culture; format: cell-based; settings: for FC: fold change of EC50 vs WT
[10] = tested on: DENV-2 RL strain; assay: In vivo kinetics study, low viral inoculum (10^2 PFU); settings: for In vivo kinetics, Mean of Log10: group mean; for In vivo kinetics, Copies/ml / In vivo kinetics, Log10 of Copies/ml: individual mice
[11] = two of three values below threshold

COc1cc(N[C@H](C(=O)c2c[nH]c3ccc(OC(F)(F)F)cc23)c2ccc(Cl)cc2OC)cc(S(C)(=O)=O)c1 [JNJ-1802]
EC50 ([1]; C3/36 cells, DENV-2RL, EXP 1 and EXP 2, read-out: EC50, individual values): 1.34 nM and 1.19 nM and 1.38 nM
EC90 ([1]; C3/36 cells, DENV-2RL, EXP 1 and EXP 2, read-out: EC90, individual values): 7.33 nM and 7.51 nM and 5.46 nM
EC50 ([1]; Dengue virus, DENV2, C6/36, C3/36 cells, DENV-2RL, EXP 1 and EXP 2, read-out: EC50, individual values): 1.05 nM
EC90 ([1]; Dengue virus, DENV2, C6/36, C3/36 cells, DENV-2RL, EXP 1 and EXP 2, read-out: EC90, individual values): 5.52 nM
EC50 ([1]; Dengue virus, DENV2, C6/36, C3/36 cells, DENV-2RL, mean, read-out: EC50 Mean): 1.2 nM
EC90 ([1]; Dengue virus, DENV2, C6/36, C3/36 cells, DENV-2RL, mean, read-out: EC90 Mean): 6.46 nM
EC50 ([1]; Dengue virus, DENV2, C6/36, C6/36, read-out: EC50): 1.24 ± 0.14 nM
EC90 ([1]; Dengue virus, DENV2, C6/36, C6/36, read-out: EC90): 6.5 ± 1 nM
activity against unrelated DNA and RNA viruses [2]: inactive
fraction unbound [3]: < 0.001
EC50 [4]: 8900 nM
EC90 [5]: 0.762 ± 0.095 nM
EC50 [5, 11]: < 0.09 nM
EC90 [6]: 0.19 ± 0.1 nM
EC50 ([6]; two of two values below threshold): < 0.04 nM
EC90 ([7]; one of three values below threshold): 0.28 nM
EC50 [7, 11]: < 0.0443 nM
EC50 [8]: 9000 nM
EC50 ([9]; Dengue virus, DENV2, NS4B L94F_V91A_T108I replicon SDM210002): 2380 nM
EC50 ([9]; NS4B A222S replicon SDM200008, read-out: EC50): 0.35 nM
EC50 ([9]; NS4B F237Y replicon SDM140022, Huh7 transient, listed as 64281802-AAA, read-out: EC50): 7.9 nM and 11 nM and 9.2 nM
EC50 ([9]; NS4B L94F_V91A_T108I replicon SDM210002, listed as 64281802-AAA): 2350 nM and 2290 nM
EC50 ([9]; NS4B V91A replicon SDM140014, Huh7 transient, listed as 64281802-AAA, read-out: EC50): 40 nM and 47 nM and 58 nM and 50 nM
EC50 ([9]; NS4B V219A replicon SDM200007, listed as 64281802-AAA, read-out: EC50): 0.6 nM and 0.52 nM and 0.63 nM and 0.92 nM and 0.78 nM
EC50 ([9]; WT replicon pFK-sgDVs-R2A-SDM120005, Huh7 transient): 0.33 nM
FC ([9]; NS4B A222S, listed as 64281802-AAA): 1.1 and 1.2 and 0.9 and 1.3 and 1.4
FC ([9]; NS4B F237Y, listed as 64281802-AAA): 46.0 and 32.0 and 23.0
FC ([9]; NS4B L94F_V91A_T108I, listed as 64281802-AAA): 3872.3 and 4594.9 and 4248.1
FC ([9]; NS4B M183T, listed as 64281802-AAA): 1.1 and 1.2 and 1.6 and 1.4
FC ([9]; NS4B S85L, listed as 64281802-AAA): 3.1 and 3.4 and 3.6 and 4.3 and 4.0
FC ([9]; NS4B T195A, listed as 64281802-AAA): 2.9 and 3.2 and 2.4 and 3.7 and 3.5
FC ([9]; NS4B V91A, listed as 64281802-AAA): 232.0 and 190.0 and 127.0 and 176.0
FC ([9]; NS4B V219A, listed as 64281802-AAA): 1.8 and 1.9 and 1.5 and 1.4
viral load vs vehicle ([10]; 0.2 mg per kg per day b.i.d.): No significant reduction in viral load
In vivo kinetics, Mean of Log10 ([10]; 0.2 mg/kg/d, day 1 p.i.): 2.59 Log10
In vivo kinetics, Copies/ml ([10]; 0.2 mg/kg/d, day 1 p.i.): 3.93E+02 Copies/ml
In vivo kinetics, Log10 of Copies/ml ([10]; 0.2 mg/kg/d, day 1 p.i.): 2.5940 Log10
In vivo kinetics, Copies/ml ([10]; 0.2 mg/kg/d, day 2 p.i.): 3.93E+02 Copies/ml and 5.27E+03 Copies/ml
In vivo kinetics, Log10 of Copies/ml ([10]; 0.2 mg/kg/d, day 2 p.i.): 2.5940 Log10 and 3.7220 Log10
In vivo kinetics, Mean of Log10 ([10]; 0.2 mg/kg/d, day 3 p.i.): 3.28 Log10
In vivo kinetics, Copies/ml ([10]; 0.2 mg/kg/d, day 3 p.i.): 7.26E+03 Copies/ml and 3.93E+02 Copies/ml and 6.17E+04 Copies/ml
In vivo kinetics, Log10 of Copies/ml ([10]; 0.2 mg/kg/d, day 3 p.i.): 3.8609 Log10 and 2.5940 Log10 and 3.9537 Log10 and 4.7902 Log10
In vivo kinetics, Mean of Log10 ([10]; 0.2 mg/kg/d, day 4 p.i.): 3.19 Log10
In vivo kinetics, Copies/ml ([10]; 0.2 mg/kg/d, day 4 p.i.): 3.93E+02 Copies/ml and 1.02E+04 Copies/ml and 4.96E+03 Copies/ml and 2.86E+03 Copies/ml and 9.30E+03 Copies/ml
In vivo kinetics, Log10 of Copies/ml ([10]; 0.2 mg/kg/d, day 4 p.i.): 2.5940 Log10 and 4.0085 Log10 and 3.6952 Log10 and 3.4564 Log10 and 3.9686 Log10
In vivo kinetics, Mean of Log10 ([10]; 0.2 mg/kg/d, day 5 p.i.): 5.08 Log10
In vivo kinetics, Copies/ml ([10]; 0.2 mg/kg/d, day 5 p.i.): 8.17E+04 Copies/ml and 5.79E+05 Copies/ml and 1.02E+05 Copies/ml
In vivo kinetics, Log10 of Copies/ml ([10]; 0.2 mg/kg/d, day 5 p.i.): 4.9120 Log10 and 5.7623 Log10 and 4.6527 Log10 and 5.0605 Log10 and 5.0084 Log10
In vivo kinetics, Mean of Log10 ([10]; 2 mg/kg/d, day 1 p.i.): 2.59 Log10
In vivo kinetics, Copies/ml ([10]; 2 mg/kg/d, day 1 p.i.): 3.93E+02 Copies/ml
In vivo kinetics, Log10 of Copies/ml ([10]; 2 mg/kg/d, day 1 p.i.): 2.5940 Log10
In vivo kinetics, Mean of Log10 ([10]; 2 mg/kg/d, day 2 p.i.): 2.59 Log10
In vivo kinetics, Copies/ml ([10]; 2 mg/kg/d, day 2 p.i.): 3.93E+02 Copies/ml
In vivo kinetics, Log10 of Copies/ml ([10]; 2 mg/kg/d, day 2 p.i.): 2.5940 Log10
In vivo kinetics, Mean of Log10 ([10]; 2 mg/kg/d, day 3 p.i.): 2.77 Log10
In vivo kinetics, Copies/ml ([10]; 2 mg/kg/d, day 3 p.i.): 3.93E+02 Copies/ml and 6.33E+03 Copies/ml
In vivo kinetics, Log10 of Copies/ml ([10]; 2 mg/kg/d, day 3 p.i.): 2.5940 Log10 and 3.8013 Log10
In vivo kinetics, Mean of Log10 ([10]; 2 mg/kg/d, day 4 p.i.): 2.59 Log10
